Here are results for three molecules from patent US7192939B2, “Pestalotiopsis microsporia isolates and compounds derived therefrom” (Montana State University, priority 2002, dated 2007).

Converted amounts (≈) assume the structure as drawn.

A short description of data set [1]: ESR superoxide scavenging (hypoxanthine/xanthine oxidase, EMPO spin trap). Format: biochemical. Conditions: superoxide generated by hypoxanthine/xanthine oxidase, read-out: concentration needed to reduce the free radical O2−• (ESR signal) by 50%.
Description: All EPR spectra were recorded on a Bruker model ESP 300E spectrometer, X-band operating at a microwave frequency 9.787 gHz, a microwave power of 10 mW, a modulation frequency of 100.0 kHz, and a modulation amplitude of 0.367 mT. The magnetic field range was 334±80 mT, a time constant of 40.96 ms, a receiver gain of 2×10^4 and a magnetic fieldsweep rate of 0.48 mT/s. […] The superoxide O2 ^−• was generated by the action of hypoxanthine or xanthine on water and oxygen through the catalysis of xanthine oxidase. […] All enzymes and their respective substrates were purchased from Sigma Chemical Co., while other reagents were acquired from Calbiochem, and Life-Tech. The reaction mixture was transferred to an EPR flat tube for signal detection. Also placed in the tube was a spin trap compound-2-ethoxycarbonyl-2-methyl-3,4-dihydro-2H-pyrrole-1-oxide (EMPO) to trap the superoxide. […] Test compounds were added to the tube and their effects on signal reduction (antioxidant activity) were monitored. Because of the water insolubility of (1) it was necessary to dissolve it first into a small amount of methanol and then add it to the reaction mixture. […]
The superoxide was generated in our experimental set-up by the action of hypoxanthine on water and oxygen via the catalysis of xanthine oxidase. […] Simultaneously, EPR spectra are recorded of the free electrons associated with the free radicals. […]
Another data set can be described thus: Solubility in water. It is filed as physicochemical.
A further data set concerns Sclerotinia sclerotiorum. The data set can be described thus: Antimycotic activity, minimum inhibitory concentration in potato dextrose broth. It is filed as cell-based. As for the experimental part:
(§1) The minimum inhibitory concentration of (1) required to give a 100% reduction of growth of a test fungus over a course of two days was determined by dissolving (1) in 1 ml of potato dextrose broth (PDB). An agar plug, 1 cm in dia, containing the test fungus was then added to the broth and the organisms incubated at 23° C. for 48 hr. At that time the plate containing the fungi was examined visually for growth and the concentration of compound reducing growth by 100% was recorded. Fungi tested were each plant pathogenic and included an oomycete—Pythium ultimum, an ascomycete—Sclerotinia sclerotiorum, and a basidiomycete—Rhizoctonia solani.

For another data set, the system named is Rhizoctonia solani. Described as above. Format: cell-based. As for the experimental part: as §1
Data set [2] in a line: ESR hydroxyl free radical scavenging (Fenton reaction, DEPMPO spin trap). Conditions: 0.18 mM OH• chemically generated (Fenton), read-out: concentration required to reduce hydroxyl free radical by 50%. Format: biochemical. As for the experimental part: EPR techniques used in this work are primarily those reported by Sheu et al., 2000 and Zhu and Fung, 2000. All EPR spectra were recorded on a Bruker model ESP 300E spectrometer, X-band operating at a microwave frequency 9.787 gHz, a microwave power of 10 mW, a modulation frequency of 100.0 kHz, and a modulation amplitude of 0.367 mT. The magnetic field range was 334±80 mT, a time constant of 40.96 ms, a receiver gain of 2×10^4 and a magnetic fieldsweep rate of 0.48 mT/s. The magnetic field spacings are similar to those reported by Zhang et al (2000). The superoxide O2 ^−• was generated by the action of hypoxanthine or xanthine on water and oxygen through the catalysis of xanthine oxidase. The hydroxyl free radical OH^• is generated by the well-known Fenton reaction: Fe^2++H2O2=Fe^3++OH^−+OH^•, where 0.09 mM ferrous sulfate and 0.18 mM H2O2 were used. All enzymes and their respective substrates were purchased from Sigma Chemical Co., while other reagents were acquired from Calbiochem, and Life-Tech. […] Test compounds were added to the tube and their effects on signal reduction (antioxidant activity) were monitored. […]
Testing confirms that Isopestacin (1) indeed has antioxidant activity as determined by ESR measurements described in the experimental section. […] Simultaneously, EPR spectra are recorded of the free electrons associated with the free radicals. […]

For the next data set, the system named is Pythium ultimum. The data set is described as follows: Antimycotic activity, minimum inhibitory concentration in potato dextrose broth. Format: cell-based. The method, then:
as §1
Isopestacin (1) is antimycotic, with total inhibition of Pythium ultimum, a plant pathogenic oomycete, at 40 μg/ml at 48 hr.
Pestacin was also analyzed for antifungal activity using previously described methodology. […] This level of activity is slightly greater than that previously observed for isopestacin.

A short description of data set [3]: Lipid free radical reduction. It is filed as biochemical. From the text: Testing confirms that Isopestacin (1) indeed has antioxidant activity as determined by ESR measurements described in the experimental section. The compound is able to scavenge superoxide O2^−• and OH^• radicals in solution. The superoxide was generated in our experimental set-up by the action of hypoxanthine on water and oxygen via the catalysis of xanthine oxidase. On the other hand OH^• was generated via the Fenton reaction of hydrogen peroxide on ferrous iron. Simultaneously, EPR spectra are recorded of the free electrons associated with the free radicals. […] It should be noted that since superoxide was generated via the xanthine oxidase reaction it was no possible to accurately calculate the exact molar concentration of O2^−• in these reactions. However, (1) is extremely capable of scavenging the hydroxyl free radical (OH^•) with 0.22 mM required to reduce this free radical (0.18 mM OH^•—chemically generated) by 50%. This is an important biological and chemical property of (1) since OH^• is believed to be more detrimental to cell death directly than O2^−•. On the other hand, (1) has no effect in reducing the lipid free radical LOO^−•.

A short description of data set [4]: Total oxyradical scavenging capacity (TOSC) assay. It is filed as biochemical. Conditions: for IC50: TOSC assay, ABAP initiator, KMBA, 37° C., ethylene by GC, read-out: solution concentration required to reduce the effects of the free radical initiator by 50%. From the text: The similarity of pestacin to isopestacin, described herein and in Strobel, G. A.; Ford, E.; Worapong, J.; Harper, J. K.; Arif, A. M.; Grant, D. M.; Fung, P.; Chau, R. M. W. Phytochem. […] Pestacin was thus analyzed using the total oxyradical scavenging capacity (TOSC) assay. This analysis assesses a compounds ability to inhibit a free radical initiator's oxidation of α-Keto-γ-methiolbutyric acid to release ethylene gas. Compounds with antioxidant properties thus decrease the production of ethylene gas, as measured gas chromatographically. Pestacin required a 1.7±0.1 mM solution to reduce the effects of the free radical initiator by 50%. In contrast, the water-soluble vitamin E derivative, troxol, required an 18.8±0.9 mM solution to exert the same effect. Pestacin, therefor, appears to be an extremely effective antioxidant as measured by this assay. A mechanism for antioxidant activity may also be proposed based on the structure of pestacin.
Antioxidant activity of (1) was assessed by dissolving 8.7 mg of (1) in 200 μL of DMSO then diluting the solution 1:10, 1:100, and 1:1000 in DMSO. A 10 μL volume of each sample was then combined in a 10 mL vial with 100 μL of 100 mM potassium phosphate buffer, 100 μL of 2 mM α-keto-γ-methiolbuthric acid (KMBA), and 690 μL of H2O. Control samples were also prepared containing 100 μL of 100 mM potassium phosphate buffer, 100 μL of 2 mM KMBA, and 700 μL of H2O. The sealed samples were then incubated at 37° C. for 5 minutes followed by injection of 100 μL of the free radical initiator, 2,2′-azobis(2-methylpropionamidine) (ABAP). Peroxy radicals, generated by thermal homolysis of ABAP at 37° C., then oxidized KMBA to produce ethylene gas. Ethylene production was monitored by gas chromatography of 1 mL samples removed every 12 minutes over a 96-minute period. Chromatographic analysis was performed on a Hewlett-Packard 5890A gas chromatograph equipped with a Supelco 6-foot Porpak Q packed column, a flame ionization detector, and employing helium as a carrier gas (30 mL/min). […]

As to `Cc1cc(O)c2c(c1)C(c1c(O)cccc1O)OC2=O` (racemic) [Isopestacin, 1-oxo-3-(9,13-dihydroxybenzene)-5-methyl-7-hydroxy-1,3-dihydrobenzofuranone], the results for the IC50 in data set [1] and in data set [2] were at least 185 µM and 220 µM, respectively. Besides, the solubility in water result in “Solubility in water” is reported as “very low solubility in water”. Also, in the data set with Sclerotinia sclerotiorum, the “inhibitory effect on Sclerotinia sclerotiorum” value is reported as “no inhibitory effect”. The “inhibitory effect on Rhizoctonia solani” value with Rhizoctonia solani is listed as “no inhibitory effect”. Also, in the data set with Pythium ultimum (at 48 hr, 100% reduction of growth), the “concentration giving total inhibition of Pythium ultimum” value was 40 µg/mL. The “effect in reducing the lipid free radical LOO−•” value in data set [3] was “no effect”.
For the molecule `Cc1cc(O)c2c(c1)COC2c1c(O)cccc1O` (racemic) [Pestacin], the MIC with Pythium ultimum (Globisporangium ultimum, previously described methodology, read-out: minimum inhibitory concentration against Pythium ultimum) was about 10 µg/mL (≈ 38.7 µM). The IC50 in data set [4] came out at 1.7 ± 0.1 mM. In data set [4] (pestacin vs vitamin E derivative troxol), the “antioxidant activity relative to troxol” value turned out to be 11 times.
Take `Cc1c(C)c2c(c(C)c1O)CCC(C)(C(=O)O)O2` (centres unmarked) [troxol, reference compound]: the IC50 in data set [4] came out at 18.8 ± 0.9 mM.
